According to patent US11491245B2, “Gadolinium chelate compounds for use in magnetic resonance imaging” (BAYER PHARMA AKTIENGESELLSCHAFT, priority 2015, dated 2022):

Tests used:
[1] = Pharmacokinetic parameters in rats (blood plasma kinetic); type: in vivo, male rats (Han-Wistar)
Description: Pharmacokinetic parameters of the compound of Example 3 were determined in male rats (Han-Wistar, 220-230 g, n=3). The compound was administered as a sterile aqueous solution (52.5 mmol Gd/L) as a bolus in the tail vein of the animals. The dose was 0.1 mmol Gd/kg. Blood was sampled 1, 3, 5, 10, 15, 30, 60, 90, 120, 240, 360, 480 and 1440 min post injection and the Gd concentration was determined by Inductively Coupled Plasma Mass Spectroscopy (ICP-MS Agilent 7500a, Waldbronn, Germany). The blood level was converted to plasma concentrations by division by 0.625 (plasma fraction of rat blood, assuming strictly extracellular distribution). As a control, 3 animals were treated in the same way with Gadovist®, a low molecular weight contrast agent.
The fit of the obtained data to a three compartment model (Phoenix—WinNonlin) yielded the pharmacokinetic parameters which are shown in Table 3.

[2] = Water solubility; type: physicochemical; conditions: 10 mM Tris-HCl buffer, 20° C.
Description: The water solubility of the compounds was determined at room temperature (20° C.) in 0.5 mL buffer solution (10 mM Tris-HCl) in the microcentrifuge tubes (Eppendorf, 2.0 mL safe-lock caps). The solid compound was added stepwise to the buffer solution. The suspension was mixed using a shaker (Heidolph Reax 2000) and treated 5 min in an ultrasound bath (Bandelin, Sonorex Super RK255H) The suspension was stored at room temperature (20° C.) over night and final Gadolinium concentration was determined by inductively coupled plasma mass spectrometry (ICP-MS).

[3] = Contrast-enhanced magnetic resonance angiography (CE-MRA); type: in vivo, male New Zealand white rabbits; conditions: rabbits
Description: Reference compound 1 (Gadovist®), as an approved representative of the Gadolinium-based MRI contrast agents, was used in both dose protocols (100 μmol Gd/kg bw and 30 μmol Gd/kg bw) and compared to Example 3 (30 μmol Gd/kg bw).
The contrast-enhanced magnetic resonance angiography study was performed at a clinical 1.5 T Scanner (Magnetom Avanto, Siemens Healthcare, Erlangen, Germany). For optimal signal exploitation, a standard spine coil was used for the data acquisition. The study was done using male New Zealand white rabbits (weight 2.5-2.9 kg, n=6, Charles River Kisslegg). All animals were initially anesthetized using a body weight-adjusted intramuscular injection of a mixture (1+2) of xylazine hydrochloride (20 mg/mL, Rompun 2%, Bayer Vital GmbH, Leverkusen, Germany) and ketamine hydrochloride (100 mg/mL, Ketavet, Pfizer, Pharmacia GmbH, Berlin, Germany) using 1 mL/kg body weight. […]
Based on a localizer sequence oriented in coronal, axial, and sagittal directions, the anatomic course of the aorta was acquired. The time to peak was determined using a small intravenous test bolus (0.25 mL/2.5-2.7 kg or 0.3 mL/2.8-2.9 kg bw, Reference compound 1) and a 3D FLASH sequence (test bolus sequence: repetition time: 36.4 millisecond, echo time 1.45 millisecond, flip angle: 30 degree, spatial resolution: 1.0×0.8×17 mm). […]

[4] = system: GS9L brain tumors; test: Contrast-enhanced MRI of brain tumors in rats; type: in vivo, male Fisher rats (F344); conditions: GS9L rat brain tumors, 0.1 mmol Gd/kg bw vs Reference compound 1 0.1 mmol Gd/kg bw, FIG. 11A
[5] = male rats, 0.1 mmol Gd/kg bolus tail vein, mean
[6] = male rats, 0.1 mmol Gd/kg bolus tail vein, three compartment model, mean

CC(C(=O)NCC(=O)NCC(CNC(=O)CNC(=O)C(C)N1CCN(CC(=O)[O-])CCN(CC(=O)[O-])CCN(CC(=O)[O-])CC1)(CNC(=O)CNC(=O)C(C)N1CCN(CC(=O)[O-])CCN(CC(=O)[O-])CCN(CC(=O)[O-])CC1)CNC(=O)CNC(=O)C(C)N1CCN(CC(=O)[O-])CCN(CC(=O)[O-])CCN(CC(=O)[O-])CC1)N1CCN(CC(=O)[O-])CCN(CC(=O)[O-])CCN(CC(=O)[O-])CC1.[Gd+3].[Gd+3].[Gd+3].[Gd+3] (centres unmarked) [Example 3, Tetragadolinium [4,10-bis(carboxylatomethyl)-7-{3,6,12,15-tetraoxo-16-[4,7,10-tris-(carboxylatomethyl)-1,4,7,10-tetraazacyclododecan-1-yl]-9,9-bis({[({2-[4,7,10-tris-(carboxylatomethyl)-1,4,7,10-tetraazacyclododecan-1-yl]propanoyl}amino)acetyl]-amino}methyl)-4,7,11,14-tetraazaheptadecan-2-yl}-1,4,7,10-tetraazacyclododecan-1-yl]acetate]
AUC∞ Area under the curve (to infinity) [1, 5]: 9040 µmol·min/L
MRT Mean residence time [1, 5]: 24.1 min
V1 + V2 Volume, compartments V1 + V2 [1, 5]: 0.26 L/kg
V2 Volume, compartment V2 [1, 5]: 0.15 L/kg
Vc (V1) Volume, central compartment V1 [1, 5]: 0.11 L/kg
Vd,ss Volume of distribution at steady state [1, 5]: 0.28 L/kg
t½ α Half-life, compartment V1 [1, 6]: 1.7 min
t½ β Half-life, compartment V2 [1, 6]: 18.2 min
t½ γ Half-life, compartment V3 [1, 6]: 133 min
pharmacokinetic profile (blood plasma kinetic) ([1]; rats, versus Gadovist®, FIG. 1): comparable to that of Gadovist®
Solubility [2]: >1400 mmol Gd/L
image quality of the low dose protocol ([3]; 30 μmol Gd/kg bw vs 30 μmol Gd/kg bw Reference compound 1, 1.5 T): significantly better than the low dose protocol of Reference compound 1
contrast enhancement of the low dose protocol ([3]; 30 μmol Gd/kg bw vs 100 μmol Gd/kg bw Reference compound 1, 1.5 T): comparable to that of the standard dose of Reference compound 1
lesion-to-brain contrast at the same dose [4]: higher lesion-to-brain contrast and an excellent demarcation of the tumor rim
